The structures appear in SMILES notation. pKi: −log10 of the molar value.

For experiment [1], the target named is T1, 5-hydroxytryptamine receptor 2A (Homo sapiens, UniProt P28223). Kind of experiment: Binding affinity to 5-HT2A (unknown origin).
For experiment [2], the target named is T2, 5-hydroxytryptamine receptor 1A (Homo sapiens, UniProt P08908).
T2 sequence (P08908 whole entry): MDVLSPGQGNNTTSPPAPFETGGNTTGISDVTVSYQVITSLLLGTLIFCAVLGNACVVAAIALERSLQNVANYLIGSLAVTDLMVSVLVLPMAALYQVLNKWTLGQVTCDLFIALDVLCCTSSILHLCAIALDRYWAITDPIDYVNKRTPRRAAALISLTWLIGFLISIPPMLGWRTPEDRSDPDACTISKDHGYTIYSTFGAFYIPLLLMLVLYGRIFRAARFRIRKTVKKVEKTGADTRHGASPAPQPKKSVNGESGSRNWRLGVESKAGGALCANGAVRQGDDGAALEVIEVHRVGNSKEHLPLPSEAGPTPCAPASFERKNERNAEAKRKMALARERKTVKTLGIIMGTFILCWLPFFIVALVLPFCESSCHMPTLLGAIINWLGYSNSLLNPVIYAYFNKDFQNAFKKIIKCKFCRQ
Kind of experiment: Binding affinity to 5-HT1A (unknown origin).

Experiment [3] addresses T1, 5-hydroxytryptamine receptor 2A. Description: Displacement of [3H]Ketanserin from 5-HT2A receptor (unknown origin).
Experiment [4] in a line: Selectivity index, ratio of Ki for rat 5-HT1A to Ki for 5-HT2A (unknown origin).
Experiment [5] concerns the target T3, 5-hydroxytryptamine receptor 1A (Rattus norvegicus, UniProt P19327).
T3 sequence (P19327 whole entry): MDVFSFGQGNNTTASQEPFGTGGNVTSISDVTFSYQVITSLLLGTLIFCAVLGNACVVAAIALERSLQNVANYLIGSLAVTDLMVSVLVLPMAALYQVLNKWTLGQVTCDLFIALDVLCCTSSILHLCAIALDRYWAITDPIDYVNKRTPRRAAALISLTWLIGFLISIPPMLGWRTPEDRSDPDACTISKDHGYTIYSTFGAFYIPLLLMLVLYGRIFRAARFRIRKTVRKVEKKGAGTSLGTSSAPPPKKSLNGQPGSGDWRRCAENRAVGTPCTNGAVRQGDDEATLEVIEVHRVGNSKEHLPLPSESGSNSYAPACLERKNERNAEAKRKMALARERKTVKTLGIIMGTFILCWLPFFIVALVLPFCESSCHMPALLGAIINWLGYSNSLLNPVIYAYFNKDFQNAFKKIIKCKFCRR
Kind of experiment: Displacement of [3H]8-OH-DPAT from 5-HT1A receptor in Rattus norvegicus (rat) hippocampus. The settings on record: for pKi: read-out: Ki; for Ki: read-out: pKi (converted).

Experiment [6] addresses 5-hydroxytryptamine receptor 2A (Rattus norvegicus, UniProt P14842). Kind of experiment: Displacement of [3H]Ketanserin from 5-HT2A receptor in rat cortex.

Chain of 5-hydroxytryptamine receptor 2A (Rattus norvegicus, UniProt P14842) (P14842 whole entry): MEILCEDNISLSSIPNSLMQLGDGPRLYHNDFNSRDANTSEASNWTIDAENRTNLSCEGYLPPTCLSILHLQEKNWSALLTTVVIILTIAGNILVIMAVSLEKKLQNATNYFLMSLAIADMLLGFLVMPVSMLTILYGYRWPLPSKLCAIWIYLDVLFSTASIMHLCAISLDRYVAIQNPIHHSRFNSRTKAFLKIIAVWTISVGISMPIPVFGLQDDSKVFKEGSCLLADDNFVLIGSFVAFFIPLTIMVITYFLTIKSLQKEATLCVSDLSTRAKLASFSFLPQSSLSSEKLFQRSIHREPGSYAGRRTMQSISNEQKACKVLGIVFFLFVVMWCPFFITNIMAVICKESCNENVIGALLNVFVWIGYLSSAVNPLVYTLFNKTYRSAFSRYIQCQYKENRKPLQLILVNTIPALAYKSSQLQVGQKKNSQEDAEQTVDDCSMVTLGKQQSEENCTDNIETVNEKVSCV
T1 sequence (P28223 whole entry): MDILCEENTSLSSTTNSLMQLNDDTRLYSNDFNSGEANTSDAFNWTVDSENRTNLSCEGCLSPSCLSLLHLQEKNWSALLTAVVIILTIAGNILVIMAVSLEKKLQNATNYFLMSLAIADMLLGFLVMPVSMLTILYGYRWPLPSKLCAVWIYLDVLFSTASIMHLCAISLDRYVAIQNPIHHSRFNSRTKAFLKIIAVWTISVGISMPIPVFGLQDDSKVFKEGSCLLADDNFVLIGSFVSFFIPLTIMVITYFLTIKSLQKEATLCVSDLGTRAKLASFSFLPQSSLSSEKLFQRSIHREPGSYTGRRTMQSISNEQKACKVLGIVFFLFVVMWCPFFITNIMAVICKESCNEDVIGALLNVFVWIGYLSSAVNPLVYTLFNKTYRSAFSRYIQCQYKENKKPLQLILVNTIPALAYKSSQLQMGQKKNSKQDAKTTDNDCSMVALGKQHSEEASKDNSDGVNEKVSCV

As to `CCCCn1c(NCCCN2CCN(c3ccccc3)CC2)nc2c1c(=O)n(C)c(=O)n2C`, the values for the pKi in experiment [1] and in experiment [2] were 6.21 and 7.00, respectively.
As to `Cn1c(=O)c2c(nc(NCCCN3CCN(C(c4ccccc4)c4ccccc4)CC3)n2C)n(C)c1=O`, the pKi is 6.51 in experiment [3] and 5.80 in experiment [5]. Also, the Ratio Ki in experiment [4] came out at 5.1.
With `Cn1c(=O)c2c(nc3n2CCC(=O)N3CCCN2CCN(c3cccc(Cl)c3)CC2)n(C)c1=O`, the pKi in experiment [1] is 6.74; in experiment [2], 7.37.
With `Cn1c(=O)c2c(nc3n(CCCN4CCN(c5ccccc5)CC4)c(=O)ccn23)n(C)c1=O`, the results for the pKi in experiment [1] and in experiment [2] were 5.33 and 7.60, respectively.
Regarding `Cn1c(=O)c2c(nc3n2CCC(=O)N3CCCN2CCN(c3ncccn3)CC2)n(C)c1=O`, the results for the pKi in experiment [1] and in experiment [2] were 4.55 and 7.38, respectively.
The like results for `COc1ccccc1N1CCN(CCCN2CCCn3c2nc2c3c(=O)n(C)c(=O)n2C)CC1` were, in that order, 6.31 and 8.55.
On to `Cn1c(=O)c2c(nc(NCCCN3CCN(c4ccccc4)CC3)n2CCCc2ccccc2)n(C)c1=O`, for which the Ki in experiment [5] was 50 nM. Moreover, the negative-log Ki (pKi) in experiment [6] was 6.35.
Regarding `COc1ccccc1N1CCN(CCCCn2c(=O)ccn3c4c(=O)n(C)c(=O)n(C)c4nc23)CC1`, in experiment [5], the Ki is 0.5 nM. This molecule also had a pKi in experiment [6] of 5.97.
On to `Cn1c(=O)c2c(nc3n2CCCN3CCCN2CCN(c3cccc(Cl)c3)CC2)n(C)c1=O`, for which the pKi in experiment [1] is 6.90; in experiment [2], 7.59.
Consider `CCOC(=O)Cn1c(NCCCN2CCN(c3ccccc3)CC2)nc2c1c(=O)n(C)c(=O)n2C`, for which the pKi in experiment [1] is 6.00; in experiment [2], 6.23; in experiment [6] it was 6.35. In addition, the Ki in experiment [5] was 220 nM.
Regarding `Cn1c(=O)c2c(nc3n2CCCN3CCCN2CCN(c3ncccn3)CC2)n(C)c1=O`, the pKi in experiment [1] is 5.09; in experiment [2], 7.44.
In the case of `COc1ccccc1N1CCN(CCCNc2nc3c(c(=O)n(C)c(=O)n3C)n2CCCc2ccccc2)CC1`, the Ki in experiment [5] was 8 nM. The molecule further gave a pKi in experiment [6] of 6.52.
In the case of `COc1ccccc1N1CCN(CCCN2C(=O)CCCn3c2nc2c3c(=O)n(C)c(=O)n2C)CC1`, the pKi is 5.30 in experiment [1] and 6.78 in experiment [2].
On to `COc1ccccc1N1CCN(CCCn2c(=O)ccn3c4c(=O)n(C)c(=O)n(C)c4nc23)CC1`, for which the pKi in experiment [1] was 5.41; in experiment [2], 7.98.
As for `Cn1c(=O)c2c(nc3n(CCCCN4CCN(c5cccc(Cl)c5)CC4)c(=O)ccn23)n(C)c1=O`, the Ki in experiment [5] was 8.79 nM. The negative logarithm of the Ki (pKi) in experiment [6] was 6.82.
With `COc1ccccc1N1CCN(CCCN2C(=O)CCn3c2nc2c3c(=O)n(C)c(=O)n2C)CC1`, the pKi in experiment [1] was 5.38; in experiment [2], 7.67.
Take `Cn1c(=O)c2c(nc(NCCCN3CCN(c4ccccc4)CC3)n2C)n(C)c1=O`: the results for the negative-log Ki (pKi) in experiment [1] and in experiment [2] were 6.71 and 6.42, respectively.
For the molecule `Cn1cnc2c1c(=O)n(CCCN1CCN(C(c3ccccc3)c3ccccc3)CC1)c(=O)n2C`, the pKi in experiment [3] was 7.23; in experiment [5], 5.70. Moreover, in experiment [4], the Ratio Ki is 33.9.
Take `Cn1c(=O)c2c(nc(NCCCN3CCN(c4cccc(Cl)c4)CC3)n2CCCc2ccccc2)n(C)c1=O`: the Ki in experiment [5] is 10 nM. In experiment [6], the pKi is 6.46.
For `Cn1c(=O)c2c(nc3n2CCCN3CCCN2CCN(c3ccccc3)CC2)n(C)c1=O`, the negative logarithm of the Ki (pKi) in experiment [1] is 6.38; in experiment [2], 7.80.
On to `Cn1c(=O)c2c(nc3n(CCCCN4CCN(c5ccccc5)CC4)c(=O)ccn23)n(C)c1=O`, for which, in experiment [5], the Ki was 21.5 nM. Also, in experiment [6], the pKi is 5.70.
As to `Cn1c(=O)c2c(nc3n2CCCCN3CCCN2CCN(c3ccccc3)CC2)n(C)c1=O`, the pKi in experiment [1] was 6.59; in experiment [2], 7.51.
`CC(c1ccccc1)n1c(NCCCN2CCN(c3ccccc3)CC2)nc2c1c(=O)n(C)c(=O)n2C` (centres undefined): in experiment [5], the Ki is 1010 nM. This molecule also had a pKi in experiment [6] of 6.94.
As for `Cn1c(=O)c2c(nc3n(CCCN4CCN(c5cccc(Cl)c5)CC4)c(=O)ccn23)n(C)c1=O`, the pKi is 5.97 in experiment [1] and 7.48 in experiment [2].
Take `COc1ccccc1N1CCN(CCCNc2nc3c(c(=O)n(C)c(=O)n3C)n2Cc2ccccc2)CC1`: the Ki in experiment [5] was 48 nM. This molecule gave a pKi in experiment [6] of 6.26.
For the molecule `Cn1c(=O)c2c(nc3n2CCCCN3CCCN2CCN(c3cccc(Cl)c3)CC2)n(C)c1=O`, the pKi is 6.48 in experiment [1] and 7.57 in experiment [2].
With `Cn1c(=O)c2c(nc3n2CCCC(=O)N3CCCN2CCN(c3ncccn3)CC2)n(C)c1=O`, the values for the pKi in experiment [1] and in experiment [2] were 4.41 and 6.32, respectively.
As to `Cn1c(=O)c2c(nc(N3CCN(C(c4ccccc4)c4ccccc4)CC3)n2C)n(C)c1=O`, the pKi in experiment [3] is 4.65; in experiment [5], 4.97. Besides, the Ratio Ki in experiment [4] came out at 0.5.
Consider `Cn1c(=O)c2c(nc3n2CCCN3CCCCN2CCN(c3ccccc3)CC2)n(C)c1=O`, for which the pKi in experiment [1] is 6.61; in experiment [2], 8.68.
In the case of `Cn1c(=O)c2c(nc(NCCCN3CCN(c4cccc(Cl)c4)CC3)n2CCc2ccccc2)n(C)c1=O`, the Ki in experiment [5] was 210 nM. The negative logarithm of the Ki (pKi) in experiment [6] is 6.92.
With `COc1ccccc1N1CCN(CCCN2CCCCn3c2nc2c3c(=O)n(C)c(=O)n2C)CC1`, the values for the pKi in experiment [1] and in experiment [2] were 6.25 and 7.76, respectively.
The like results for `Cn1c(=O)c2c(nc3n2CCCC(=O)N3CCCN2CCN(c3cccc(Cl)c3)CC2)n(C)c1=O` were, in that order, 6.45 and 7.22.
